Test results published in publication PMC7534320 (Journal of Enzyme Inhibition and Medicinal Chemistry, 2020).
≈ marks a conversion by molar mass, not a printed value. Read-outs that look alike come from different tables or passages of the source.

Legend:
[1] = PAMPA gastrointestinal (GIT) permeability; type: in vitro ADME
From the text: (§1) In vitro gastrointestinal (GIT) and blood–brain barrier (BBB) permeability was studied using the PAMPA model (Parallel Artificial Membrane Permeability Assay). The sandwich consists of two 96-well microfilter plates. The PAMPA system contains two chambers: the donor at the bottom and the acceptor chamber at the top. The chambers are separated by a 120-μm-thick microfilter disc coated with a 20% (w/v) dodecane solution of a lecithin mixture (Pion, Inc.). Before adding samples to the donor compartments, the samples were dissolved in DMSO. The donor solution was adjusted to pH ≈ 6.8 for GIT application and to pH ≈ 7.4 for BBB application using 0.5 M NaOH. The plates were combined and then incubated for 3 h for GIT model and 4 h for BBB model in a humidity-saturated atmosphere at the temperature set at 310 K. The apparent permeability coefficient (Papp) was calculated according to the following equation: Papp=−ln(1−CA/Cequilibrium)/S×(1/VD+1/VA)×t where VD – donor volume, VA – acceptor volume, Cequilibrium – equilibrium concentration Cequilibrium=CD×VD+ CA×VA/VD+VA, S – membrane area, t – incubation time (in seconds).

[2] = PAMPA blood–brain barrier (BBB) permeability; type: in vitro ADME
From the text: as §1
Compounds with high permeability have the Papp value at the level >4.0 × 10^−6 cm s^−1 [28].

C. difficile ATCC 9689 = test: Agar well diffusion technique; type: cell-based; details: 25 mg/mL dissolved in methanol and filtered
C. butyricum ATTC 860 = type: cell-based; details: 25 mg/mL dissolved in methanol and filtered
[3] = system: L. monocytogenes ATCC 7644; test: Agar well diffusion technique; type: cell-based; details: 25 mg/mL dissolved in methanol and filtered
B. subtillis ATCC 238557 = test: Agar well diffusion technique; type: cell-based; details: 25 mg/mL dissolved in methanol and filtered
E. faecalis ATTC 29212 = test: Agar well diffusion technique; type: cell-based; details: 25 mg/mL dissolved in methanol and filtered
S. aureus ATCC 25923 = test: Agar well diffusion technique; type: cell-based; details: 25 mg/mL dissolved in methanol and filtered
S. pyrogenes ATCC 19615 = test: Agar well diffusion technique; type: cell-based; details: 25 mg/mL dissolved in methanol and filtered
E. coli ATCC 25922 = test: Agar well diffusion technique; type: cell-based; details: 25 mg/mL dissolved in methanol and filtered
K. pneumoniae ATCC 31488 = test: Agar well diffusion technique; type: cell-based; details: 25 mg/mL dissolved in methanol and filtered
P. mirabilis ATCC 12453 = test: Agar well diffusion technique; type: cell-based; details: 25 mg/mL dissolved in methanol and filtered
[4] = system: S. typhimurium ATCC 14028; test: Agar well diffusion technique; type: cell-based; details: 25 mg/mL dissolved in methanol and filtered
[5] = system: P. aereuginosa ATCC 27853; test: Agar well diffusion technique; type: cell-based; details: 25 mg/mL dissolved in methanol and filtered
E. aerogenes ATCC 13048 = test: Agar well diffusion technique; type: cell-based; details: 25 mg/mL dissolved in methanol and filtered
C. krusei ATCC 14243 = test: Agar well diffusion technique; type: cell-based; details: 25 mg/mL dissolved in methanol and filtered
C. albicans ATTC 10231 = test: Agar well diffusion technique; type: cell-based; details: 25 mg/mL dissolved in methanol and filtered
[6] = Antioxidant activity, DPPH radical reaction; type: biochemical; details: free substance; linear regression
Procedure: The antioxidant activity was evaluated using the DPPH radical reaction. The investigation of antioxidant properties was performed spectrophotometrically, according to Studzińska-Sroka’s modifications. […] 25.0 µL of DPPH solution was mixed with 175.0 µL of studied solutions in a 96-well plate, and then the plate was shaken and incubated in darkness for half an hour at room temperature. Subsequently, the absorbance (A) was measured at the wavelength set at 517 nm against the blank (the mixture of DPPH solution and methanol). The inhibition of the DPPH radical by the studied samples was calculated due to the following equation: A=Ao − Ai/Ao x 100% where Ao is the absorbance of the control sample, Ai is the absorbance of studied samples. Every determination was repeated six times. As a reference, vitamin C was used. IC50 values, which determine the concentration of the substance that inhibits the formation of DPPH by 50%, were determined by linear regression analysis.

[7] = piperine after incorporation into the cavity of β-cyclodextrin; cited from earlier work

SMILES	Inhibition zone (mm) – Agar well diffusion technique (C. difficile ATCC 9689) [mm]	Inhibition zone (mm) – Agar well diffusion technique (C. butyricum ATTC 860) [mm]	Inhibition zone (mm) – Agar well diffusion technique [3] [mm]	Inhibition zone (mm) – Agar well diffusion technique (B. subtillis ATCC 238557) [mm]	Inhibition zone (mm) – Agar well diffusion technique (E. faecalis ATTC 29212) [mm]	Inhibition zone (mm) – Agar well diffusion technique (S. aureus ATCC 25923) [mm]	Inhibition zone (mm) – Agar well diffusion technique (S. pyrogenes ATCC 19615) [mm]	Inhibition zone (mm) – Agar well diffusion technique (E. coli ATCC 25922) [mm]	Inhibition zone (mm) – Agar well diffusion technique (K. pneumoniae ATCC 31488) [mm]	Inhibition zone (mm) – Agar well diffusion technique (P. mirabilis ATCC 12453) [mm]	Inhibition zone (mm) – Agar well diffusion technique [4] [mm]	Inhibition zone (mm) – Agar well diffusion technique [5] [mm]	Inhibition zone (mm) – Agar well diffusion technique (E. aerogenes ATCC 13048) [mm]	Inhibition zone (mm) – Agar well diffusion technique (C. krusei ATCC 14243) [mm]	Inhibition zone (mm) – Agar well diffusion technique (C. albicans ATTC 10231) [mm]	IC50 DPPH [6] [mg/mL]	further results
COc1cc(/C=C/C(=O)CC(=O)/C=C/c2ccc(O)c(OC)c2)ccc1O [Curcumin, Diferuloylmethane]	6.5	5.5	5.0	8.5	10.5	4.0	5.0	3.0	2.5	3.0	5.5	2.5	2.5	2.0	4.5		permeability classification, GIT PAMPA [1]: well permeable; Papp at 3 h ([1]; pH 6.8): 3.46 ×10⁻⁶ cm/s; permeability classification, BBB PAMPA ([2]; PAMPA): well permeable; Papp at 4 h ([2]; PAMPA, pH 7.4): 31.1 ×10⁻⁶ cm/s
O=C(/C=C/C=C/c1ccc2c(c1)OCO2)N1CCCCC1 [Piperine, piperine]	3.5	5.5	5.0	7.0	9.0	3.0	2.5	2.0	2.0	1.0	1.5	1.5	1.0	2.5	2.5	38.945 (≈ 136 mM)	Papp at 3 h ([1]; donor pH ≈ 6.8, 3 h, 310 K, read-out: Papp of piperine, GIT PAMPA): 19 ×10⁻⁶ cm/s; Papp at 4 h ([2]; PAMPA, donor pH ≈ 7.4, 4 h, 310 K, read-out: Papp of piperine, BBB PAMPA): 11.9 ×10⁻⁶ cm/s; permeability classification, BBB PAMPA ([2]; Papp > 4.0 × 10^−6 cm s^−1 = high permeability): well permeable; increase of solubility of piperine [7]: about 16 folds
O=C1O[C@H]([C@@H](O)CO)C(O)=C1O [Vitamin C]																0.066 (≈ 0.375 mM)	
